Data on eight compounds can be found in ChEMBL document CHEMBL2331125, “Anthraquinone Derivatives as Potent Inhibitors of c-Met Kinase and the Extracellular Signaling Pathway” (ACS Med Chem Lett, 2013).

The structures appear in SMILES notation. Calls of active or inactive are those of the source. No cut-off for these calls is given here.

Hepatocyte growth factor receptor (Mus musculus), sequence (P16056 whole entry): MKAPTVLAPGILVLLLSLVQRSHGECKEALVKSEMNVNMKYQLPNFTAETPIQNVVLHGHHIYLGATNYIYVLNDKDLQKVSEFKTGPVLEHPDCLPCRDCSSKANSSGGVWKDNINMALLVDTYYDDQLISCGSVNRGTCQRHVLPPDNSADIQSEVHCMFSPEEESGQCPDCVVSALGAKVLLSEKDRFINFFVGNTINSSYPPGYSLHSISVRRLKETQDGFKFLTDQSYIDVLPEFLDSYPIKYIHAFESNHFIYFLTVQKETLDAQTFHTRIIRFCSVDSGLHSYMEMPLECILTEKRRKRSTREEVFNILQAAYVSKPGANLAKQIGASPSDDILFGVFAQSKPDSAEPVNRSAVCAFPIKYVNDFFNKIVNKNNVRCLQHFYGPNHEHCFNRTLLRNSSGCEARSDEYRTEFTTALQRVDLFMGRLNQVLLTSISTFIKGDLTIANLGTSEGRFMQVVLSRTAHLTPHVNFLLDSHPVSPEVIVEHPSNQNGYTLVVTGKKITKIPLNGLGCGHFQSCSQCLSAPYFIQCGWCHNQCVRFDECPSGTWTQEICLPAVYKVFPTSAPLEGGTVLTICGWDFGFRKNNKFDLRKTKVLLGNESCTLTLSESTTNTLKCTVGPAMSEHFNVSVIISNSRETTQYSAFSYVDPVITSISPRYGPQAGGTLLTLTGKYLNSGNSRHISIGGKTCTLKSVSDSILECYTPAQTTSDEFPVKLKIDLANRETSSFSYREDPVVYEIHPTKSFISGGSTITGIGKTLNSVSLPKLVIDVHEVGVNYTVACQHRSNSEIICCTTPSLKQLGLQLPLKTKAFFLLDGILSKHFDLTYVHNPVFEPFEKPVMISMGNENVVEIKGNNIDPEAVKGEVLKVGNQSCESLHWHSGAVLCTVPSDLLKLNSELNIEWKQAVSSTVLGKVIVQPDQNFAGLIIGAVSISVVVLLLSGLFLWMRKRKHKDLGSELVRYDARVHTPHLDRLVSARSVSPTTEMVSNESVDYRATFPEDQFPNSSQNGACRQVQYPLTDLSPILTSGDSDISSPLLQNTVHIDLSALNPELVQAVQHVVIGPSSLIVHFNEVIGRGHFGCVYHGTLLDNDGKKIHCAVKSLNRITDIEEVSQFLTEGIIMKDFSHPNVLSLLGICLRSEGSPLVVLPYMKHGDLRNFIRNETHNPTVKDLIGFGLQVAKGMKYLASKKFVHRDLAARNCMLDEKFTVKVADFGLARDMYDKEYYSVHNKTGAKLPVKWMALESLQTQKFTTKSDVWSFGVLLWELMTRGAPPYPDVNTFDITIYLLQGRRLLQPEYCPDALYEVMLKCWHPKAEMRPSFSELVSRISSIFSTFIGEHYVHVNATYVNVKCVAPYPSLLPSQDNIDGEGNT

The assay concerns the target Hepatocyte growth factor receptor (Mus musculus) (UniProt P16056). The assay is described as follows: Inhibition of TPR-Met phosphorylation in mouse BAF3 cells at 10 uM after 2 hrs by Western blot analysis. It counts as cell-based. (Immunoblotting shows a protein as a band on a membrane.)
As for `CC(=O)Nc1ccc(-c2ccc(Nc3cc(S(=O)(=O)O)c(N)c4c3C(=O)c3ccccc3C4=O)cc2)cc1`, the inhibition entry was “inactive”. For `Cc1cc(-c2ccc(Nc3cc(S(=O)(=O)O)c(N)c4c3C(=O)c3ccccc3C4=O)c(C)c2)ccc1Nc1cc(S(=O)(=O)O)c(N)c2c1C(=O)c1ccccc1C2=O` the value was “inactive”; for `Cc1cc(-c2ccc(Nc3cc(S(=O)(=O)O)c(N)c4c3C(=O)c3ccccc3C4=O)c(C)c2)ccc1N`, “inactive”. Consider `Nc1ccc(-c2ccc(Nc3cc(S(=O)(=O)O)c(N)c4c3C(=O)c3ccccc3C4=O)cc2)cc1`, for which the inhibition result was “inactive”. Under `Nc1c(S(=O)(=O)O)cc(Nc2ccc(Cc3ccc(Nc4cc(S(=O)(=O)O)c(N)c5c4C(=O)c4ccccc4C5=O)cc3)cc2)c2c1C(=O)c1ccccc1C2=O` stands “inactive”; under `Nc1c(S(=O)(=O)O)cc(Nc2ccc(-c3ccc(Nc4ncccn4)cc3)cc2)c2c1C(=O)c1ccccc1C2=O`, “inactive”; under `Cc1cc(Nc2cc(S(=O)(=O)O)c(N)c3c2C(=O)c2ccccc2C3=O)ccc1-c1ccc(Nc2cc(S(=O)(=O)O)c(N)c3c2C(=O)c2ccccc2C3=O)cc1C`, “inactive”.

As for `Nc1c(S(=O)(=O)O)cc(Nc2ccc(-c3ccc(Nc4cc(S(=O)(=O)O)c(N)c5c4C(=O)c4ccccc4C5=O)cc3)cc2)c2c1C(=O)c1ccccc1C2=O`, the inhibition entry was “inactive”.
